Laboratory results reported in US20260272934A1 (The United States of America, as represented by the …, priority 2023, published 2026).

Experiments:
PBD1 = PBD1 (Homo sapiens, UniProt P53350); assay: FP-based inhibition assay; format: binding; settings: read-out: PBD1 IC50 ± SD
Experimental: In the following, PBD1-3 fluorescence polarization (FP) binding assays were carried out for determining the Plk1 specificity. […] All samples were analyzed approximately 30 min after reaction in a 384-well format using the SpectraMax Paradigm multi-mode microplate detection platform (Molecular Devices). Data were analyzed after carrying out at least three independent experiments using GraphPad Prism software version 7.

5-HT2A = 5-HT2A (Homo sapiens, UniProt P28223); assay: Off-target primary and secondary screen; format: binding; settings: for Primary screen AVE (% inhib) ± SD: 10 mM sample
DOR = DOR (Homo sapiens, UniProt P41143); assay: Off-target primary and secondary screen; format: binding; settings: 10 mM sample
Sigma 1 = Sigma 1 (Homo sapiens, UniProt Q99720); assay: Off-target primary and secondary screen; format: binding; settings: 10 mM sample
5-HT5A = 5-HT5A (Homo sapiens, UniProt P47898); assay: Off-target primary and secondary screen; format: binding; settings: 10 mM sample
5-HT3 = 5-HT3 (Homo sapiens, UniProt P46098); assay: Off-target primary and secondary screen; format: binding; settings: 10 mM sample
Sigma 2 = Sigma 2 (Homo sapiens, UniProt Q5BJF2); assay: Off-target primary and secondary screen; format: binding; settings: 10 mM sample
5-HT2B = 5-HT2B (Homo sapiens, UniProt P41595); assay: Off-target primary and secondary screen; format: binding; settings: 10 mM sample
Plk3 PBD = assay: FP-based inhibition assay; format: binding; settings: N.S. = Not significant
Experimental: (§1) In the following, PBD1-3 fluorescence polarization (FP) binding assays were carried out for determining the Plk1 specificity. FP assays were carried out essentially as described previously {Liu, 2011 #2790; Qian, 2014 #1416}. All samples were analyzed approximately 30 min after reaction in a 384-well format using the SpectraMax Paradigm multi-mode microplate detection platform (Molecular Devices). Data were analyzed after carrying out at least three independent experiments using GraphPad Prism software version 7.

Plk2 PBD = assay: FP-based inhibition assay; format: binding; settings: N.S. = Not significant
Experimental: as §1

[1] = test system: multiple myeloma-derived L363 cells; assay: Colorimetric MTS cell viability assay; format: cell-based
From the text: • *Data from Park, J. E., et al {Park, 2023 #3387}. **Data from Alverez C. N., et al {Alverez, 2020 #3186}. N. S., Not significant; N. D., Not determined. ^a IC50 values determined from at least three independent experiments except as noted in parentheses. b A colorimetric MTS cell viability assay carried out using multiple myeloma-derived L363 cells.

Alpha2A = Alpha2A (Homo sapiens, UniProt P08913); assay: Off-target primary and secondary screen; format: binding; settings: 10 mM sample
[2] = Conversion of Allopole to Allopole-A under various buffer conditions (mass spectroscopy); format: physicochemical; settings: RT, 1 h; for Compound detected / Compound detected, % of total / Compound detected, pk area: 100 uM Allopole incubated
Experimental: This Example illustrates the conversion of Allopole to Allopole-A under various buffer conditions, RT, 1 h (JE), as set forth in Table 4
Samples were prepared by incubating Allopole in the indicated buffer conditions without or with 5 mM GSH for 1 h, at RT.

D5 = D5 (Homo sapiens, UniProt P21918); assay: Off-target primary and secondary screen; format: binding; settings: 10 mM sample
M3 = M3 (Homo sapiens, UniProt P20309); assay: Off-target primary and secondary screen; format: binding; settings: 10 mM sample
5-HT1D = 5-HT1D (Homo sapiens, UniProt P28221); assay: Off-target primary and secondary screen; format: binding; settings: 10 mM sample
Alpha1A = Alpha1A (Homo sapiens, UniProt P35348); assay: Off-target primary and secondary screen; format: binding; settings: 10 mM sample
M4 = M4 (Homo sapiens, UniProt P08173); assay: Off-target primary and secondary screen; format: binding; settings: 10 mM sample
Hela cells = assay: Immunoprecipitation, confocal imaging and time-lapse analyses in Hela cells; format: cell-based
From the text: FIG. 5 illustrates the inhibition by Allopole of PBD1-dependent interactions and subcellular localizations leading to mitotic block in Hela cells. FIG. 5a depicts the immunoprecipitation and immunoblotting analyses.

[3] = target: T1, PBD1 WT or mutants (F559) (Homo sapiens, UniProt P53350, F559D); assay: FP-based inhibition and U2OS imaging with PBD1/Plk1 WT or F559 mutants; format: binding; settings: in vitro and in vivo; U2OS cells 8 μM
T1 construct: the indicated PBD1 WT or mutants in the presence of various concentrations of Allopole
Experimental: Bars, mean #s.d. FIG. 7(b) depicts the results of FP-based inhibition assays for the interaction between FITC-Ahx-DPPLHS-pT-AI-NH2 and the indicated PBD1 WT or mutants in the presence of various concentrations of Allopole. Bars, mean±s.d. FIG. 7(c) depicts confocal imaging and quantification of Plk1 endogenous promoter (Pendo)-fused mGFP-Plk1 signals in U2OS cells silenced for endogenous Plk1 (siPlk1) and treated with 8 μM of Allopole for the indicated length of time (Experimental procedure at bottom, right). Arrowheads, centrosomes. Quantification of Pendo-mGFP-Plk1 signals was performed with the images acquired from three independent experiments [n=a total of 93, 53, and 79 cells for Plk1 WT samples (in order) and n=a total of 92, 64, and 76 cells for the F559D mutant samples (in order)]. Bars, mean±s.d. Arrowheads, centrosomes. ****, P<0.0001 (unpaired two-tailed t-test).

[4] = buffer 2 (1x PBS pH = 7.4), no GSH
[5] = buffer 3 (20 mM HEPES pH = 7.0), no GSH

5-HT2A, sequence (P28223 whole entry, species assumed): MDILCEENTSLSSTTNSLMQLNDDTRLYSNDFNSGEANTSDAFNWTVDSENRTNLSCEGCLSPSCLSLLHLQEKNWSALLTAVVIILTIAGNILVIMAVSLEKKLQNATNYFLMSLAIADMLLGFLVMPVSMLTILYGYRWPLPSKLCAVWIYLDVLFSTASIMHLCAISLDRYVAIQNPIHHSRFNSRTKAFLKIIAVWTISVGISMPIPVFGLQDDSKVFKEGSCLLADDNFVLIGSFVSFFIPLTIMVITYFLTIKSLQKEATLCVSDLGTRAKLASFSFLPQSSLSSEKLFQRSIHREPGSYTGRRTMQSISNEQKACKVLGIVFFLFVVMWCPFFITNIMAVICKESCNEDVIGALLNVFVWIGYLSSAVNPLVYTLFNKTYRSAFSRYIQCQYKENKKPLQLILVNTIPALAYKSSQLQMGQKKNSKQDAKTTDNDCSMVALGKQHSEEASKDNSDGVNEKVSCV
5-HT1D, sequence (P28221 whole entry, species assumed): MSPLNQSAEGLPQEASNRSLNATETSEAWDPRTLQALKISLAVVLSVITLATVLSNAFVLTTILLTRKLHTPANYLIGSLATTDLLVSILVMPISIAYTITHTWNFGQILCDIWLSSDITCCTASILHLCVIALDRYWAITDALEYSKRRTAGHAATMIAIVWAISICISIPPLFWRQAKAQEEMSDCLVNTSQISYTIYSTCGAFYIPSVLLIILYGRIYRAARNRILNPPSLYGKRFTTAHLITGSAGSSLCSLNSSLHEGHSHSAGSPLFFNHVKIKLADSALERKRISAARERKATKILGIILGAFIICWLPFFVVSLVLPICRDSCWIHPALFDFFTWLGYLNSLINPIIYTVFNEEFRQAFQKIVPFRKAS
5-HT2B, sequence (P41595 whole entry, species assumed): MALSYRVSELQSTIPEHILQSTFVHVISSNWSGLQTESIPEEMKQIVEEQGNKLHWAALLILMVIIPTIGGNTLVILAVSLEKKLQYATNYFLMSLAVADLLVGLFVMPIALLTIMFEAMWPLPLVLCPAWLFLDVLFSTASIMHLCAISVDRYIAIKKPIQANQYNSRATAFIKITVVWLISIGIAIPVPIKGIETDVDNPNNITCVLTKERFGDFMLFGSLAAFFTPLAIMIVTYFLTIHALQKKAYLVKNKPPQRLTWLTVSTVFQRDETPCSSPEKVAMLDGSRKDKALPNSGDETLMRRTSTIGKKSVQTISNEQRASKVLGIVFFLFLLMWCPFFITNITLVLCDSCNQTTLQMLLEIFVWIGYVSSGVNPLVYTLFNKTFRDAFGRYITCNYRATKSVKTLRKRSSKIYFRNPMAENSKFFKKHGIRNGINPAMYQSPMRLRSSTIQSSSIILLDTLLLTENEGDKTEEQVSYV
M3, sequence (P20309 whole entry): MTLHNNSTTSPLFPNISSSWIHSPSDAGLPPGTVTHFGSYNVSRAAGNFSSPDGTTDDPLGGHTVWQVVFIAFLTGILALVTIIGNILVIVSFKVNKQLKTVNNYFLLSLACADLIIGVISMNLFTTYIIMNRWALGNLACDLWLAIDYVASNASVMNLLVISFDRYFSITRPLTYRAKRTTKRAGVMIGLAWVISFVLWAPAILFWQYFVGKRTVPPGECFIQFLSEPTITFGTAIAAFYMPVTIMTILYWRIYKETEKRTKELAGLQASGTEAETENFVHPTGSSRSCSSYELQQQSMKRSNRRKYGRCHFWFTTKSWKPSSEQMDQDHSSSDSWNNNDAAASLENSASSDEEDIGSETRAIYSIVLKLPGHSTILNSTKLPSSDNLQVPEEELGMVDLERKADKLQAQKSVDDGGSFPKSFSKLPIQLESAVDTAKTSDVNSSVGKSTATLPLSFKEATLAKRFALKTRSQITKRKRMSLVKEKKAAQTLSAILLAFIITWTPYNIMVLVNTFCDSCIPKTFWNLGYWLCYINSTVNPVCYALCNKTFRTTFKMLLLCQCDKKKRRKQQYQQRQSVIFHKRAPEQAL
D5, sequence (P21918 whole entry): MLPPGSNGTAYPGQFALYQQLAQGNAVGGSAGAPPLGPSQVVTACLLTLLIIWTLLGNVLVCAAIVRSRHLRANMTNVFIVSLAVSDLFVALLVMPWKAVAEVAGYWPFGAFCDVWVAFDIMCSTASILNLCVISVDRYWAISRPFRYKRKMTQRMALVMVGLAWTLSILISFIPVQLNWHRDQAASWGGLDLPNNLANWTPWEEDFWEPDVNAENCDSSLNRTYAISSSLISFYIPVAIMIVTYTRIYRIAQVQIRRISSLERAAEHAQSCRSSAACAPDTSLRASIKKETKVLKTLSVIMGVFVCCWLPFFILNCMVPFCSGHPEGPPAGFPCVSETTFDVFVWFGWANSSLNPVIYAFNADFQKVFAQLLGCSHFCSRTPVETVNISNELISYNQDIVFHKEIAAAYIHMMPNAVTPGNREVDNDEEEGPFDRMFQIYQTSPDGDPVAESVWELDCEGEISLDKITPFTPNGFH
Sigma 1, sequence (Q99720 whole entry): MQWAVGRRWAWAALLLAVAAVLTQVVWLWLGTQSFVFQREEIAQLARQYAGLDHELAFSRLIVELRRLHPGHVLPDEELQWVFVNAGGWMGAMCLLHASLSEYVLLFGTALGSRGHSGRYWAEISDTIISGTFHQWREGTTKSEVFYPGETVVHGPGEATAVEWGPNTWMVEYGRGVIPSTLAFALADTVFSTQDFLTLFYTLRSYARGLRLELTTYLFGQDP
5-HT3, sequence (P46098 24-478, species assumed): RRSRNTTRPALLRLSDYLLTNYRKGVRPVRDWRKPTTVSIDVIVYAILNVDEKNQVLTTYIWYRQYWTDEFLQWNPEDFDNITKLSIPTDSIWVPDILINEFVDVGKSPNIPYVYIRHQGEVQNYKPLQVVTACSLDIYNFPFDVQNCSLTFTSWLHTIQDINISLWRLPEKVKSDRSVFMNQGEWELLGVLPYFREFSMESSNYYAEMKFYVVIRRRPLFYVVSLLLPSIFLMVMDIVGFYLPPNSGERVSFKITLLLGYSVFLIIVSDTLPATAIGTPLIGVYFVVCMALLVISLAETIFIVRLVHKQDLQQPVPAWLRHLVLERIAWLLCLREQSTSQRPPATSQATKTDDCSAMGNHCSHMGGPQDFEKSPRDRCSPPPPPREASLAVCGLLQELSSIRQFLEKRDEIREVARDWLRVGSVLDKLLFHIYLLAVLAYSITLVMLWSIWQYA
Alpha2A, sequence (P08913 whole entry): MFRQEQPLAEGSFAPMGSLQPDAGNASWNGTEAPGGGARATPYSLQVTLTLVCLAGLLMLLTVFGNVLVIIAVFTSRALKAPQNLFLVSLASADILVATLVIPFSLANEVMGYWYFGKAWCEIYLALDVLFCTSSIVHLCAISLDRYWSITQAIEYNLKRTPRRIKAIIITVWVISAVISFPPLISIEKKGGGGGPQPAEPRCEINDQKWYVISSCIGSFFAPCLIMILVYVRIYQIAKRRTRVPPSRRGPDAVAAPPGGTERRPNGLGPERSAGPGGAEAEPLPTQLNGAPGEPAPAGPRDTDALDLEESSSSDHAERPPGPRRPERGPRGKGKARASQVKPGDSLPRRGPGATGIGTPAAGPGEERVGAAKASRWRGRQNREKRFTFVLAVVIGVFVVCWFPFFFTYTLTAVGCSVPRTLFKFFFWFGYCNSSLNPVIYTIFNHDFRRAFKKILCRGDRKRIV
Alpha1A, sequence (P35348 whole entry): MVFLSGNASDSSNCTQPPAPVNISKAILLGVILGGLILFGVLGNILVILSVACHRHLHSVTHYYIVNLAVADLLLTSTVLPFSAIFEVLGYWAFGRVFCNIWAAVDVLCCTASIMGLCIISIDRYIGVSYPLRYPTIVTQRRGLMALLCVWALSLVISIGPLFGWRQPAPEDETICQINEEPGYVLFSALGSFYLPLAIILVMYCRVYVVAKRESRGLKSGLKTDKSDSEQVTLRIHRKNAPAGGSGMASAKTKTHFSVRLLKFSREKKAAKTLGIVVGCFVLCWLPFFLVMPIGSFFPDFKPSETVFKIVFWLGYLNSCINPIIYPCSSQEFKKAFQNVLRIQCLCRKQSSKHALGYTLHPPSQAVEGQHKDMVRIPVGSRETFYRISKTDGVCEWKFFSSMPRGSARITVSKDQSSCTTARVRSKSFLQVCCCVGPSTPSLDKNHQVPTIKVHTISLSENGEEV
5-HT5A, sequence (P47898 whole entry, species assumed): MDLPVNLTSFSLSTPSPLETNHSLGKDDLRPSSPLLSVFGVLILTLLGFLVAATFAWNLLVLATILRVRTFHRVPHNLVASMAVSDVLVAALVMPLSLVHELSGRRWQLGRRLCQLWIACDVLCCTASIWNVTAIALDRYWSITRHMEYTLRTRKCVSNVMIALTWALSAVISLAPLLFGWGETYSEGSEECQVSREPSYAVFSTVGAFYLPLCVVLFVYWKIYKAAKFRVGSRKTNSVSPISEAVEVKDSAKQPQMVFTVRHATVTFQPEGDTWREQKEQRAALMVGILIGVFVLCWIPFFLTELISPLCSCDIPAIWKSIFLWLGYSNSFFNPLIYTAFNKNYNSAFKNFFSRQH
M4, sequence (P08173 whole entry): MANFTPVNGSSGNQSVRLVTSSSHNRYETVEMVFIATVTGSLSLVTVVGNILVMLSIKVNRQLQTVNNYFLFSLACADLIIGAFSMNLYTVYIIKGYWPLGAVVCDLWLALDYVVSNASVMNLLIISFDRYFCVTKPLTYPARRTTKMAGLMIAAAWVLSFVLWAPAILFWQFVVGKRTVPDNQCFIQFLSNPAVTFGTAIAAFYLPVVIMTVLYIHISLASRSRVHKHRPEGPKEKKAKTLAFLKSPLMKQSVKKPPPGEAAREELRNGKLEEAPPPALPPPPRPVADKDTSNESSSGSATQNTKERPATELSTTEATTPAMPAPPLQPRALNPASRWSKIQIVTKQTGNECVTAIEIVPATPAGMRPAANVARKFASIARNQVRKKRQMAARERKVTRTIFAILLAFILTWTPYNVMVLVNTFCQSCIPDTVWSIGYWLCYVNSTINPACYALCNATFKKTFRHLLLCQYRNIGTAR

| SMILES | Primary screen AVE (% inhib) ± SD (5-HT2A) | Primary screen AVE (% inhib) ± SD (DOR) | Primary screen AVE (% inhib) ± SD (Sigma 1) | Primary screen AVE (% inhib) ± SD (5-HT5A) | Primary screen AVE (% inhib) ± SD (5-HT3) | Primary screen AVE (% inhib) ± SD (Sigma 2) | Primary screen AVE (% inhib) ± SD (5-HT2B) | Primary screen AVE (% inhib) ± SD (Alpha2A) | Compound detected ([2]; buffer 1 + 5 mM GSH) | Compound detected, % of total ([2]; buffer 1 + 5 mM GSH) | Compound detected, pk area ([2]; buffer 1 + 5 mM GSH) | Compound detected [2, 4] | Compound detected, % of total [2, 4] | Compound detected, pk area [2, 4] | Compound detected ([2]; buffer 2 + 5 mM GSH) | Compound detected, % of total ([2]; buffer 2 + 5 mM GSH) | Compound detected, pk area ([2]; buffer 2 + 5 mM GSH) | Compound detected [2, 5] | Compound detected, % of total [2, 5] | Compound detected ([2]; buffer 3 + 5 mM GSN) | other results |
| --- | --- | --- | --- | --- | --- | --- | --- | --- | --- | --- | --- | --- | --- | --- | --- | --- | --- | --- | --- | --- | --- |
| O=c1c2sc(Cl)cc2n2c(=S)[nH]nc2n1CC1CC1 [Compound 19, 7-Chloro-4-(cyclopropylmethyl)-1-thioxo-2,4-dihydrothieno[2,3-e][1,2,4]triazolo[4,3-a]pyrimidin-5 (1H)-one] | 37.0 ± 10.4 % inhib | -13.5 ± 6.8 % inhib | 2.0 ± 21.4 % inhib | -1.4 ± 14.4 % inhib | -3.8 ± 3.1 % inhib | 40.6 ± 9.5 % inhib | -17.7 ± 11.2 % inhib | -6.3 ± 7.9 % inhib | 95.4 µmol/L | 95.4 % of total | 1.38E+09 | 0.8 µmol/L | 0.8 % of total | 4.90E+06 | 77.9 µmol/L | 77.9 % of total | 5.81E+08 | 1.9 µmol/L | 1.9 % of total | 66.9 µmol/L | IC50 (PBD1): 0.00253 ± 0.00018 µM; Plk3 PBD IC50 ± SD (Plk3 PBD): N.S.; Plk2 PBD IC50 ± SD (Plk2 PBD): N.S.; Cell efficacy (GI50) Mean ± SD ([1]; N.S. = Not significant): N.S.; Compound detected, pk area [2, 5]: 1.56E+06; Compound detected, % of total ([2]; buffer 3 + 5 mM GSN): 66.9 % of total; Compound detected, pk area ([2]; buffer 3 + 5 mM GSN): 1.89E+08; Compound detected ([2]; buffer 3 [sic], no GSH): 1.3 µmol/L; Compound detected, % of total ([2]; buffer 3 [sic], no GSH): 1.3 % of total; Compound detected, pk area ([2]; buffer 3 [sic], no GSH): 9.61E+08; Primary screen AVE (% inhib) ± SD (D5): 28.7 ± 10.7 % inhib; Primary screen AVE (% inhib) ± SD (M3): 7.5 ± 45.6 % inhib; Primary screen AVE (% inhib) ± SD (5-HT1D): 22.5 ± 25.6 % inhib; Primary screen AVE (% inhib) ± SD (Alpha1A): -9.4 ± 18.0 % inhib; Primary screen AVE (% inhib) ± SD (M4): -8.8 ± 4.8 % inhib |
| Cn1cnc([N+](=O)[O-])c1Sc1nnc2n(CC3CC3)c(=O)c3sc(Cl)cc3n12 [Compound 20, 7-Chloro-4-(cyclopropylmethyl)-1-((1-methyl-4-nitro-1H-imidazol-5-yl)thio) thieno[2,3-e][1,2,4]triazolo[4,3-a]pyrimidin-5 (4H)-one] | 52.4 ± 11.8 % inhib | -1.0 ± 4.8 % inhib | 41.8 ± 11.9 % inhib | 24.5 ± 9.3 % inhib | -0.8 ± 4.6 % inhib | 40.7 ± 5.8 % inhib | -0.5 ± 5.0 % inhib | 9.4 ± 4.6 % inhib | 0.1 µmol/L | 0.1 % of total | 8.76E+08 | 97.6 µmol/L | 97.6 % of total | 6.28E+08 | 0.0 µmol/L | 0.0 % of total | 2.41E+03 | 93.1 µmol/L | 93.1 % of total | 0.0 µmol/L | Ki (5-HT2A): 9.2 µM; effect of inhibition of PBD1-dependent interactions and subcellular localizations (Hela cells): mitotic block; GI50 ([1]; Homo sapiens, L-363, N.S. = Not significant, read-out: Cell efficacy (GI50) Mean ± SD): 4.09 ± 0.14 µM; Compound detected, % of total ([2]; buffer 3 + 5 mM GSN): 0.0 % of total; Compound detected, pk area ([2]; buffer 3 + 5 mM GSN): 93500; Compound detected ([2]; buffer 3 [sic], no GSH): 97.9 µmol/L; Compound detected, % of total ([2]; buffer 3 [sic], no GSH): 97.9 % of total; Compound detected, pk area ([2]; buffer 3 [sic], no GSH): 7.45E+08; stability in buffer ([2]; in the absence of GSH): remains stable; conversion of the prodrug to the active Allopole-A form ([2]; with 5 mM GSH): rapid conversion; sensitivity of Plk1 with F559 mutated to a charged residue to treatment [3]: insensitive; Primary screen AVE (% inhib) ± SD (D5): 20.9 ± 9.5 % inhib; Primary screen AVE (% inhib) ± SD (M3): 48.3 ± 21.9 % inhib; Primary screen AVE (% inhib) ± SD (5-HT1D): 32.8 ± 27.1 % inhib; Primary screen AVE (% inhib) ± SD (Alpha1A): 40.6 ± 10.5 % inhib; Primary screen AVE (% inhib) ± SD (M4): -8.7 ± 9.5 % inhib |
